In brackets after ≈: the same amount, converted by molar mass. One block for each compound: values may come before it.
Key:
Type in all cases: functional
[1] = test system: Escherichia coli; assay: Antibacterial activity against Escherichia coli ATCC 8739
[2] = test system: Staphylococcus aureus; assay: Antibacterial activity against Staphylococcus aureus ATCC 6538P
[3] = test system: Pseudomonas aeruginosa; assay: Antibacterial activity against Pseudomonas aeruginosa ATCC 9027
[4] = test system: Bacillus subtilis; assay: Antibacterial activity against Bacillus subtilis MTTC 441 assessed as reduction in bacterial growth
[5] = test system: Staphylococcus aureus; assay: Antibacterial activity against Staphylococcus aureus MTCC 3160 assessed as reduction in bacterial growth
[6] = test system: Candida tropicalis; assay: Antifungal activity against Candida tropicalis IFRC 1057 assessed as reduction in fungal growth by CLSI based micro-dilution asssay
[7] = test system: Candida albicans; assay: Antifungal activity against Candida albicans IFRC 194 assessed as reduction in fungal growth by CLSI based micro-dilution asssay
[8] = test system: Nakaseomyces glabratus; assay: Antifungal activity against Candida glabrata assessed as reduction in fungal growth by CLSI based micro-dilution asssay
[9] = test system: Candida parapsilosis; assay: Antifungal activity against Candida parapsilosis IFRC 1269 assessed as reduction in fungal growth by CLSI based micro-dilution asssay; settings: Lodderomyces parapsilosis
[10] = test system: Pichia kudriavzevii; assay: Antifungal activity against Candida krusei IFRC 1012 assessed as reduction in fungal growth by CLSI based micro-dilution asssay
[11] = test system: Escherichia coli; assay: Antibacterial activity against Escherichia coli assessed as reduction in bacterial growth
[12] = test system: Pseudomonas aeruginosa; assay: Antibacterial activity against Pseudomonas aeruginosa assessed as reduction in bacterial growth
[13] = test system: Bacillus subtilis; assay: Antibacterial activity against Bacillus subtilis assessed as reduction in bacterial growth
[14] = test system: Escherichia coli; assay: Antibacterial activity against Escherichia coli assessed as reduction in bacterial growth by broth microdilution method
[15] = test system: Staphylococcus aureus; assay: Antibacterial activity against Staphylococcus aureus assessed as reduction in bacterial growth by broth microdilution method
[16] = test system: Aspergillus flavus; assay: Antifungal activity against Aspergillus flavus assessed as diameter of inhibition zone at 50 to 100 ug/ml by disc-diffusion method; settings: dose 50-100 µg/ml
[17] = test system: Candida albicans; assay: Antifungal activity against Candida albicans assessed as diameter of inhibition zone at 50 to 100 ug/ml by disc-diffusion method; settings: dose 50-100 µg/ml
[18] = test system: Bacillus subtilis; assay: Antibacterial activity against Bacillus subtilis assessed as diameter of inhibition zone at 100 microg/ml incubated for 18 to 24 hrs by disc-diffusion method; settings: time 18-24 hrs, read-out: DIZ
[19] = test system: Escherichia coli; assay: Antibacterial activity against Escherichia coli assessed as diameter of inhibition zone at 100 microg/ml incubated for 18 to 24 hrs by disc-diffusion method; settings: time 18-24 hrs, read-out: DIZ
[20] = test system: Staphylococcus aureus; assay: Antibacterial activity against Staphylococcus aureus assessed as diameter of inhibition zone at 100 microg/ml incubated for 18 to 24 hrs by disc-diffusion method; settings: time 18-24 hrs, read-out: DIZ
[21] = test system: Staphylococcus aureus; assay: Antibacterial activity against Staphylococcus aureus
[22] = test system: Proteus mirabilis; assay: Antibacterial activity against Proteus mirabilis NCIM 2241 assessed as reduction in bacterial growth incubated for 18 to 24 hrs by broth microdilution method; settings: time 18-24 hrs
[23] = test system: Proteus vulgaris; assay: Antibacterial activity against Proteus vulgaris NCIM 2027 assessed as reduction in bacterial growth incubated for 18 to 24 hrs by broth microdilution method; settings: time 18-24 hrs
[24] = test system: Klebsiella pneumoniae; assay: Antibacterial activity against Klebsiella pneumoniae assessed as inhibition of bacterial growth
[25] = test system: Staphylococcus aureus; assay: Antibacterial activity against Staphylococcus aureus assessed as inhibition of bacterial growth
[26] = test system: Bacillus cereus; assay: Antibacterial activity against Bacillus cereus NCIM 2156 assessed as reduction in bacterial growth incubated for 18 to 24 hrs by broth microdilution method; settings: time 18-24 hrs
[27] = test system: Bacillus subtilis; assay: Antibacterial activity against Bacillus subtilis NCIM 2063 assessed as reduction in bacterial growth incubated for 18 to 24 hrs by broth microdilution method; settings: time 18-24 hrs
[28] = test system: Micrococcus luteus; assay: Antibacterial activity against Micrococcus luteus assessed as reduction in microbial growth
[29] = test system: Proteus vulgaris; assay: Antibacterial activity against Proteus vulgaris assessed as reduction in bacterial growth
[30] = test system: Aspergillus niger; assay: Antifungal activity against Aspergillus niger assessed as fungal growth inhibition
[31] = test system: Candida albicans; assay: Antifungal activity against Candida albicans assessed as fungal growth inhibition
[32] = test system: Bacillus subtilis; assay: Antibacterial activity against Bacillus subtilis NCIM-2063 by CLSI based microdilution assay
[33] = test system: Bacillus cereus; assay: Antibacterial activity against Bacillus cereus NCIM-2156 by CLSI based microdilution assay
[34] = test system: Staphylococcus aureus; assay: Antibacterial activity against Staphylococcus aureus NCIM-2079 by CLSI based microdilution assay
[35] = test system: Escherichia coli; assay: Antibacterial activity against Escherichia coli NCIM-2065 by CLSI based microdilution assay
[36] = test system: Proteus vulgaris; assay: Antibacterial activity against Proteus vulgaris NCIM-2027 by CLSI based microdilution assay

MIC [6]: 0.063 µg/mL (≈ 0.12 µM)
MIC [7]: 0.063 µg/mL (≈ 0.12 µM)
MIC [8]: 0.063 µg/mL (≈ 0.12 µM)
MIC [9]: 0.063 µg/mL (≈ 0.12 µM)
MIC [10]: 0.063 µg/mL (≈ 0.12 µM)
SMILES: OC(CSC(=S)N1CCN(Cc2ccc(Cl)cc2)CC1)(Cn1cncn1)c1ccc(F)cc1F (stereo not given)

MIC [11]: 24.7 µg/mL (≈ 48.9 µM)
MIC [12]: 12.3 µg/mL (≈ 24.4 µM)
MIC [13]: 24.7 µg/mL (≈ 48.9 µM)
SMILES: CCCCCCCCCCCCCCCc1nnc(S)n1/N=C\c1cc(OC)c(OC)c(OC)c1

MIC [14]: 25 µg/mL (≈ 31.3 µM)
SMILES: CC(C)Cc1ccc(C(C)C(=O)NC(Cc2cn(Cc3cn(CC(=O)Nc4ccccc4[N+](=O)[O-])nn3)c3ccccc23)C(=O)NC(Cc2ccccc2)C(N)=O)cc1 (stereo not given)

MIC [15]: 25 µg/mL (≈ 31.8 µM)
SMILES: CC(C)Cc1ccc(C(C)C(=O)NC(Cc2cn(Cc3cn(CC(=O)Nc4ccccc4Cl)nn3)c3ccccc23)C(=O)NC(Cc2ccccc2)C(N)=O)cc1 (stereo not given)

MIC [28]: 1.56 µg/mL
MIC [29]: 1.56 µg/mL (≈ 4.69 µM)
MIC [13]: 1.56 µg/mL (≈ 4.69 µM)
SMILES: COc1ccc(-c2cc(-c3nnn(-c4ccccc4)c3C)no2)cc1

MIC [32]: 3.12 µg/mL (≈ 5.51 µM)
MIC [33]: 3.12 µg/mL (≈ 5.51 µM)
MIC [34]: 3.12 µg/mL (≈ 5.51 µM)
MIC [35]: 3.12 µg/mL (≈ 5.51 µM)
MIC [36]: 3.12 µg/mL (≈ 5.51 µM)
SMILES: O=C(CNN1C(=O)CSC1c1ccc(-c2ccc(F)cc2)cc1)NN1C(c2ccc([N+](=O)[O-])cc2)=NNC1S (stereo not given)

The next lines start with the compound.

SMILES: CCn1cc(C(=O)O)c(=O)c2cc(F)c(N3CCN(Cn4nc(-c5ccncc5)n(-c5ccc(OC)cc5)c4=S)CC3)cc21
MIC [1]: 0.125 µg/mL (≈ 0.203 µM)
MIC [2]: 0.125 µg/mL (≈ 0.203 µM)
MIC [3]: 0.125 µg/mL (≈ 0.203 µM)

SMILES: O=C(Cn1cc(COc2cccc(/C=N/c3ccc(F)cc3)c2)nn1)Nc1ccc(Br)cc1
MIC [4]: 12 µM (≈ 6.1 µg/mL)
MIC [5]: 6 µM (≈ 3.05 µg/mL)

SMILES: CC(=O)N1CCN(c2ccc(OCC3COC(Cn4ccnc4)(c4ccc(Cl)cc4Cl)O3)cc2)CC1 (stereo not given) [KETOCONAZOLE]
diameter of the inhibition zone (DIZ) [16]: 14 mm
diameter of the inhibition zone (DIZ) [17]: 14 mm

SMILES: Sc1nncn1/N=C/c1cccc(Oc2ccccc2)c1
zone of inhibition at 100 µg/mL [18]: 15 mm
zone of inhibition at 100 µg/mL [19]: 15 mm
zone of inhibition at 100 µg/mL [20]: 15 mm

SMILES: O=C(O)c1cn(C2CC2)c2cc(N3CCNCC3)c(F)cc2c1=O [CIPROFLOXACIN]
MIC [12]: 18 µg/mL (≈ 54.3 µM)
MIC [21]: 9 µM (≈ 2.98 µg/mL)
MIC [22]: 12.5 µg/mL (≈ 37.7 µM)
MIC [23]: 12.5 µg/mL (≈ 37.7 µM)
MIC [24]: 16 µg/mL (≈ 48.3 µM)
MIC [25]: 8 µg/mL (≈ 24.1 µM)
MIC [13]: 18 µg/mL (≈ 54.3 µM)
MIC [26]: 3.12 µg/mL (≈ 9.43 µM)
MIC [27]: 12.5 µg/mL (≈ 37.7 µM)
MIC [5]: 9 µM (≈ 2.98 µg/mL)

SMILES: Cc1ccc(NC(=O)Cn2cc(COc3ccc(C(=O)/C=C/c4ccc([N+](=O)[O-])cc4)cc3)nn2)cc1
MIC [30]: 125 µM (≈ 62.2 µg/mL)
MIC [31]: 125 µM (≈ 62.2 µg/mL)
